From publication PMC6522941, “Design, synthesis, and anticancer evaluation of novel quinoline derivatives of ursolic acid with hydrazide, oxadiazole, and thiadiazole moieties as potent MEK inhibitors” (Journal of Enzyme Inhibition and Medicinal Chemistry, 2019) come the findings set out here.

As a reminder, the IC50 is the midpoint of a concentration-inhibition curve.

For one assay, the system named is QSG-7701 cells. Briefly: MTT cytotoxic assay, normal hepatocyte QSG-7701. The format is cell-based, human. Particulars: for IC50: Homo sapiens, QSG7701, MTT, normal hepatocyte cell line; for Selectivity: IC50 (QSG-7701)/IC50 (HeLa). How it is done:
(§1) Human breast cancer cell line (MDA-MB-231), cervical carcinoma cell line (HeLa), the liver cancer cell line (SMMC-7721) and normal hepatocyte cell line (QSG-7701) were maintained in Dulbecco Modified Eagle Medium (DMEM) containing 4.0 mM L-Glutamine and 4500 mg/L Glucose supplemented with 10% (v/v) foetal bovine serum (FBS) and 100 U/mL penicillin/streptomycin at 37 °C in humidified atmosphere of 5% CO2 and 95% air.
(§2) Exponentially growing MDA-MB-231, Hela and SMMC-7721 cell lines were seeded into 96-well plate for 100 μL and treated with different concentrations of the synthetic compounds for 72 h, and then 10 μL of MTT (10 mg/mL) was added and incubation for 3 ∼ 4 h at 37 °C. The generated purple formazan crystals from viable can be dissolved by adding 100 μL DMSO. The plates were swirled gently for 5 min and quantified by measuring the OD of the plates at the wavelength of 540 nm. Each concentration was repeated in three wells and the same experimental condition was provided for all compounds. The results were expressed as IC50 values with standard deviations, which was defined as the concentration at which 50% survival of cells was discerned. Etoposide was co-assayed as positive control.
(§3) The in vitro cytotoxic activity of derivatives 3a–d, 4a–h, 5a–h, and 6a–h were evaluated by MTT assay against human breast cancer cell line (MDA-MB-231), cervical carcinoma cell line (HeLa), hepatocarcinoma cell line (SMMC-7721) and human normal hepatocyte cell line (QSG-7701). The anticancer drug etoposide was co-assayed as the positive control. All tested compounds were dissolved in DMSO and the stock solutions were diluted by DMEM medium before treatment of the cultured cells.
(Formazan colour is commonly taken as a measure of viable cells.)

In another assay the test system is HeLa cells. Briefly: MTT cytotoxic assay, HeLa. Format: cell-based. Particulars: Homo sapiens, 72 h. How it is done:
as §1, §2, §3

For the next assay, the target named is T1, MEK1 (Homo sapiens, UniProt Q02750).
T1 construct: purchased Carna Biosciences, Kobe, Japan
T1 sequence (Q02750 whole entry): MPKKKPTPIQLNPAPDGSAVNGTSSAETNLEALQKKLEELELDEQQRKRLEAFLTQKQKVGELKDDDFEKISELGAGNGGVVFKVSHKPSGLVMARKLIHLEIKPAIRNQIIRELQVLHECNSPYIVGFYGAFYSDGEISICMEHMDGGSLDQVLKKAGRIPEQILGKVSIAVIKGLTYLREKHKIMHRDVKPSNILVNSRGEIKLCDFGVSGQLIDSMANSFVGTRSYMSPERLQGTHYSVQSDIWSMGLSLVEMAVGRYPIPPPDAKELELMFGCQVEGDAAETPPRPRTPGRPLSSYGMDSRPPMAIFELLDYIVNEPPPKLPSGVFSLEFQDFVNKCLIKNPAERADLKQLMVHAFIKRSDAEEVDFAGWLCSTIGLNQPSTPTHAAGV
Kind of assay: In vitro MEK1 kinase assay (ADP-Glo). The format is biochemical. As to conditions: recombinant GST-MEK1, GST-ERK2 (inactive) substrate, 10 μM ATP. Here is the method: An in vitro kinase assay of MEK1 was performed using ADP-Glo kinase assay (Promega, Madison, WI, USA) according to the manufacturer’s protocol. […] Reactions were stopped by adding 5 μL of ADP-Glo reagent to each well. After incubating at 22 °C for 40 min, 10 μL of the kinase detection reagent was added and the plates were incubated for another 30 min at 22 °C in the dark. The reaction mixture was analysed by EnSpire (PerkinElmer, Waltham, MA, USA).
The Raf/MEK/ERK pathway is the downstream of Ras activation, and the abnormal expression or phosphorylation of the associated proteins is essential for cancer cell proliferation. In this pathway, MEK kinase is an important anticancer target because of its key roles in regulating the cancer cell apoptosis and oncogenic transformation[51]^,[52]. Among MEK proteins, MEK1 and MEK2 are known as substrate-specific kinases which phosphorylate their downstream kinase ERK1/2.

In another assay the test system is MDA-MB-231 cells. Briefly: MTT cytotoxic assay, MDA-MB-231. The format is cell-based, human. Here is the method:
as §1, §2, §3

For the next assay, the system named is SMMC-7721 cells. Kind of assay: MTT cytotoxic assay, SMMC-7721. Format: cell-based. As to conditions: Homo sapiens, 72 h. How it is done:
as §1, §2, §3

A value given as a limit tells only on which side of the number the result lay.

Regarding `CC(=O)NNC(=O)[C@]12CC[C@@H](C)[C@H](C)C1C1=CCC3[C@@]4(C)Cc5cc6cc(F)ccc6nc5C(C)(C)C4CC[C@@]3(C)[C@]1(C)CC2` (stereo partly drawn) [Compound 4c, N-[5′-fluoro-ursa-12-en-(2,3)-quinoline-28-oyl]-acetohydrazide], the IC50 with QSG-7701 cells was above 50 µM; in the assay with HeLa cells it was 0.99 ± 0.05 µM; at MEK1 it was 0.072 µM; in the assay on MDA-MB-231 cells (Homo sapiens, MDA-MB-231, 72 h) it was 1.16 ± 0.06 µM; with SMMC-7721 cells, 19.41 ± 0.12 µM. Also, the Selectivity in the assay with QSG-7701 cells turned out to be 63.8.
On to `C[C@@H]1CC[C@]2(C(=O)O)CC[C@]3(C)C(=CCC4[C@@]5(C)Cc6cc7ccccc7nc6C(C)(C)C5CC[C@]43C)C2[C@H]1C` (stereo partly drawn) [Compound 3a], for which the IC50 in the assay on QSG-7701 cells is above 50 µM; with HeLa cells, 0.37 ± 0.04 µM; on MEK1, 18.6 µM; with MDA-MB-231 cells (Homo sapiens, MDA-MB-231, 72 h) it was 0.75 ± 0.05 µM; in the assay with SMMC-7721 cells, 13.4 ± 0.08 µM.
Regarding `C[C@@H]1CC[C@]2(C(=O)O)CC[C@]3(C)C(=CCC4[C@@]5(C)Cc6cc7cc(F)ccc7nc6C(C)(C)C5CC[C@]43C)C2[C@H]1C` (stereo partly drawn) [Compound 3c], the IC50 with QSG-7701 cells was above 50 µM; with HeLa cells, 1.87 ± 0.03 µM; on MEK1, 0.37 µM; with MDA-MB-231 cells (Homo sapiens, MDA-MB-231, 72 h), 0.9 ± 0.1 µM; in the assay on SMMC-7721 cells it was 13.34 ± 0.13 µM. The compound further yielded a Selectivity with QSG-7701 cells of 37.0.
Turning to `Cc1nnc([C@]23CC[C@@H](C)[C@H](C)C2C2=CCC4[C@@]5(C)Cc6cc7ccccc7nc6C(C)(C)C5CC[C@@]4(C)[C@]2(C)CC3)o1` (stereo partly drawn) [Compound 5a, N-2-[ursa-12-en-(2,3)-quinoline-28-oyl]-5-methyl-1,3,4-oxadiazole], the IC50 in the assay on QSG-7701 cells was above 50 µM; with HeLa cells, 19.4 ± 0.7 µM; at MEK1, above 50 µM; in the assay on MDA-MB-231 cells (72 h), 5.32 ± 0.13 µM; with MDA-MB-231 cells (Homo sapiens, MDA-MB-231, 72 h), below 10 µM; with SMMC-7721 cells it was above 50 µM. Further, the Selectivity in the assay on QSG-7701 cells is listed as 4.3.
With `C[C@@H]1CC[C@]2(C(=O)O)CC[C@]3(C)C(=CCC4[C@@]5(C)Cc6cc7cc(Cl)ccc7nc6C(C)(C)C5CC[C@]43C)C2[C@H]1C` (stereo partly drawn) [Compound 3d], the IC50 in the assay with QSG-7701 cells is above 50 µM; in the assay on HeLa cells, 1.22 ± 0.08 µM; on MEK1, 0.82 µM; in the assay on MDA-MB-231 cells (Homo sapiens, MDA-MB-231, 72 h) it was 1.36 ± 0.03 µM; with SMMC-7721 cells, 14.62 ± 0.05 µM. The Selectivity in the assay on QSG-7701 cells was 59.5.
Turning to `COc1ccc2nc3c(cc2c1)CC1(C)C(CCC2(C)C1CC=C1C4C(C)C(C)CCC4(C(=O)O)CCC12C)C3(C)C` (stereo not drawn) [Compound 3b], the IC50 in the assay on QSG-7701 cells was above 50 µM; in the assay with HeLa cells, 0.36 ± 0.05 µM; at MEK1 it was 3.59 µM; with MDA-MB-231 cells (Homo sapiens, MDA-MB-231, 72 h) it was 0.61 ± 0.07 µM; with SMMC-7721 cells it was 12.49 ± 0.08 µM. In the assay on QSG-7701 cells, this compound returned a Selectivity of 142.3.
As to `COc1ccc2nc3c(cc2c1)CC1(C)C(CCC2(C)C1CC=C1C4C(C)C(C)CCC4(C(=O)NNC(C)=O)CCC12C)C3(C)C` (stereo not drawn) [Compound 4b, N-[5′-methoxy-ursa-12-en-(2,3)-quinoline-28-oyl]-acetohydrazide], the IC50 in the assay on QSG-7701 cells was 45.2 ± 2.82 µM; in the assay with HeLa cells it was 0.83 ± 0.09 µM; at MEK1 it was 10.9 µM; in the assay with MDA-MB-231 cells (Homo sapiens, MDA-MB-231, 72 h) it was 1.42 ± 0.14 µM; with SMMC-7721 cells it was 17.65 ± 0.11 µM. This compound registered a Selectivity in the assay on QSG-7701 cells of 54.5.
Turning to `Cc1nnc([C@]23CC[C@@H](C)[C@H](C)C2C2=CCC4[C@@]5(C)Cc6cc7cc(Cl)ccc7nc6C(C)(C)C5CC[C@@]4(C)[C@]2(C)CC3)s1` (stereo partly drawn) [Compound 6d], the IC50 was above 50 µM with QSG-7701 cells; 10.9 ± 1.07 µM in the assay with HeLa cells; above 50 µM at MEK1; 15.8 ± 1.32 µM in the assay on MDA-MB-231 cells (Homo sapiens, MDA-MB-231, 72 h); above 50 µM in the assay on SMMC-7721 cells. The Selectivity in the assay on QSG-7701 cells was 5.7.
Consider `CC(=O)NNC(=O)[C@]12CC[C@@H](C)[C@H](C)C1C1=CCC3[C@@]4(C)Cc5cc6ccccc6nc5C(C)(C)C4CC[C@@]3(C)[C@]1(C)CC2` (stereo partly drawn) [Compound 4a, N-[ursa-12-en-(2,3)-quinoline-28-oyl]-acetohydrazide], for which the IC50 in the assay with QSG-7701 cells stood at 40.6 ± 2.89 µM; with HeLa cells, 1.18 ± 0.03 µM; at MEK1 it was 37.3 µM; in the assay on MDA-MB-231 cells (Homo sapiens, MDA-MB-231, 72 h) it was 1.84 ± 0.13 µM; in the assay on SMMC-7721 cells it was 17.48 ± 0.1 µM. Further, the Selectivity in the assay with QSG-7701 cells is listed as 34.4.
